Assay results as given in the supplement of paper PMC11451515.

Tests used:
NOMO1 [1] = assay: cell viability relative to DMSO control; higher = less cytotoxic; conditions: RPMI 5 mM glucose + 10% dialyzed FBS, 48 h
Procedure, shortened: (§1)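 Viability is a per-plate percentage relative to DMSO wells, with cell-free wells as background. CellTiter-Glo One luminescence was read after 48 h at 37°C on 1536-well plates (5 μl) of NOMO1 or SEM (500 cells/well) or P12-Ichikawa (1000 cells/well) leukemia cells. The cells had been adapted for at least four passages in each medium and pin-dosed with library compounds in DMSO from 47 μM to 0.79 nM in 11 threefold steps.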

SEM cells [2] = assay: as above; conditions: HPLM + 10% dialyzed FBS, 48 h
Procedure, shortened: as §1

NOMO1 [3] = assay: AUC of viability dose-response curve (% viability x log10 dose units); higher = less sensitive; conditions: 48 h
Procedure, shortened: (§2)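 In 1536-well plates, leukemia cells adapted to each medium (500 or 1000 cells/well) were exposed for 48 h at 37°C to library compounds in DMSO across 11 threefold doses, 47 μM down to 0.79 nM. Viability was read by CellTiter-Glo One luminescence and normalised per plate to DMSO and cell-free wells. A four-parameter log-logistic fit over log10 doses was integrated by trapezoidal rule. This yielded the area under the curve, with over-full-viability curves scaled and quality-control failures dropped.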

P12-Ichikawa = assay: as above; conditions: 48 h
Procedure, shortened: as §2

SEM cells [4] = assay: as above; conditions: 48 h
Procedure, shortened: as §2

[5] = RPMI 5 mM glucose + 10% dialyzed FBS

SMILES	cell viability (NOMO1 [1]; 0.000781 µM) [%]	cell viability (NOMO1 [1]; 0.00234 µM) [%]	cell viability (NOMO1 [1]; 0.00702 µM) [%]	cell viability (NOMO1 [1]; 0.0211 µM) [%]	cell viability (NOMO1 [1]; 0.0632 µM) [%]	cell viability (NOMO1 [1]; 0.19 µM) [%]	cell viability (NOMO1 [1]; 0.569 µM) [%]	cell viability (NOMO1 [1]; 1.71 µM) [%]	cell viability (NOMO1 [1]; 5.12 µM) [%]	cell viability (NOMO1 [1]; 15.4 µM) [%]	cell viability (NOMO1 [1]; 46.1 µM) [%]	cell viability (SEM cells [2]; 0.000781 µM) [%]	cell viability (SEM cells [2]; 0.00234 µM) [%]	cell viability (SEM cells [2]; 0.00702 µM) [%]	cell viability (SEM cells [2]; 0.0211 µM) [%]	cell viability (SEM cells [2]; 0.0632 µM) [%]	cell viability (SEM cells [2]; 0.19 µM) [%]	cell viability (SEM cells [2]; 0.569 µM) [%]	cell viability (SEM cells [2]; 1.71 µM) [%]	cell viability (SEM cells [2]; 5.12 µM) [%]	cell viability (SEM cells [2]; 15.4 µM) [%]	cell viability (SEM cells [2]; 46.1 µM) [%]	AUC of viability dose-response curve (NOMO1 [3]; HPLM + 10% dialyzed FBS)	AUC of viability dose-response curve (NOMO1 [3]; RPMI 5 mM glucose + 10% FBS)	AUC of viability dose-response curve (NOMO1 [3]; [5])	AUC of viability dose-response curve (P12-Ichikawa; HPLM + 10% dialyzed FBS)	AUC of viability dose-response curve (P12-Ichikawa; RPMI 5 mM glucose + 10% FBS)	AUC of viability dose-response curve (P12-Ichikawa; [5])	AUC of viability dose-response curve (SEM cells [4]; HPLM + 10% dialyzed FBS)	AUC of viability dose-response curve (SEM cells [4]; RPMI 5 mM glucose + 10% FBS)	AUC of viability dose-response curve (SEM cells [4]; [5])
CC(=O)N[C@H]1[C@H](O[C@@H]2c3ccc(c(Cl)c3)Oc3cc4cc(c3O[C@@H]3O[C@H](CO)[C@@H](O)[C@H](O)[C@H]3NC(=O)CCCCCCCC(C)C)Oc3ccc(cc3Cl)C[C@H]3NC(=O)[C@H](N)c5ccc(O)c(c5)Oc5cc(O)cc(c5)[C@H](NC3=O)C(=O)N[C@H]4C(=O)N[C@H]3C(=O)N[C@@H]2C(=O)N[C@@H](C(=O)O)c2cc(O)cc(O[C@H]4O[C@H](CO)[C@@H](O)[C@H](O)[C@@H]4O)c2-c2cc3ccc2O)O[C@H](CO)[C@@H](O)[C@@H]1O	123	131	123	144	146	151	149	162	157	157	151	96.3	106	106	123	127	121	127	140	117	98.6	126	469	470	448	463	466	468	456	464	471
CCN1CCC(n2cc(CNc3cc(Cl)c4ncc(C#N)c(Nc5ccc(F)c(Cl)c5)c4c3)nn2)CC1	–	–	–	–	–	–	–	–	–	–	–	–	–	–	–	–	–	–	–	–	–	–	433	445	447	377	432	426	433	367	400
Nc1nc(Cl)nc2c1ncn2[C@H]1C[C@H](O)[C@@H](CO)O1	–	–	–	–	–	–	–	–	–	–	–	114	119	115	133	115	15.7	13.9	12.7	11.6	9.89	5.05	256	270	257	263	254	272	238	226	212
CCCCCC[C@H]1C(=O)O[C@H](C)[C@H](NC(=O)c2cccc(NC=O)c2O)C(=O)O[C@@H](C)[C@@H]1OC(=O)CC(C)C	–	–	–	–	–	–	–	–	–	–	–	90.7	130	111	113	115	123	137	111	110	112	101	444	438	442	417	403	403	476	403	416
